Consider ten compounds from ChEMBL document CHEMBL1201862, “PubChem BioAssay data set” (2004).

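Assay format: 96-well plates, 48-hour exposure. GI50 is the concentration that inhibits growth by half.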 Active and inactive are the calls of the source. No stated cut-off is given here; in the data, active = GI50 up to about 1.1 µM and inactive = higher. Where only a bound is given, the exact number is not on record here.

What all share (experiment): NCI anticancer screen, dose series, 48 h
In test [1] the test system is EKVX.
Test [2] deals with HCT-116.
The subject of test [3] is HL-60.
The test system of test [4] is HOP-92.
Test [5] deals with KM12.
Test [6] deals with LOX IMVI.
In test [7] the test system is MCF7.
The test system of test [8] is MDA-MB-231.
Test [9] has as its system MDA-MB-435.
Test [10] has as its system MOLT-4.
Test [11] has as its system OVCAR-3.
For test [12], the system named is OVCAR-4.
In test [13] the test system is RXF 393.
The test system of test [14] is SK-MEL-2.
The subject of test [15] is SK-MEL-5.
Test [16] relates to SNB-75.
The test system of test [17] is SR.
Test [18] relates to SW-620.
In test [19] the test system is TK-10.
The test system of test [20] is UACC-257.

As for `Clc1ccc2c(NCCCCCCNc3ccnc4cc(Cl)ccc34)ccnc2c1`, the GI50 was 6.97 µM (inactive) in [1]; 1.8 µM (inactive) in test [2]; 1.98 µM (inactive) in test [3]; 2 µM (inactive) in [4]; 2.66 µM (inactive) in test [5]; 1.74 µM (inactive) in [6]. Besides, the GI50 in [7] was 2.51 µM (inactive); in test [8] it was 2.22 µM (inactive); in test [9], 6.04 µM (inactive); in test [10], 2.45 µM (inactive); in test [11], 1.84 µM (inactive); in test [12], 2.54 µM (inactive). In addition, the GI50 was 3.01 µM (inactive) in [13]; 5.97 µM (inactive) in test [14]; 3.34 µM (inactive) in test [15]; 2.73 µM (inactive) in test [16]; 1.59 µM (inactive) in test [17]; 1.63 µM (inactive) in [18]. Further, the GI50 is 6.78 µM (inactive) in test [19] and 7.57 µM (inactive) in test [20].

For the compound `Cc1cc(O)c(C(C)C)cc1C1(c2cc(C(C)C)c(O)cc2C)OC(=O)c2ccccc21`, the GI50 in test [1] is 2.99 µM (inactive); in test [2], 1.67 µM (inactive); in test [3], 0.415 µM (active); in test [4] it was 1.92 µM (inactive); in [5], 1.75 µM (inactive); in test [6] it was 1.78 µM (inactive). The GI50 in [7] is 1.84 µM (inactive); in [8], 1.91 µM (inactive); in test [9], 1.63 µM (inactive); in [10], 1.34 µM (inactive); in [11], 2.06 µM (inactive); in test [12], 2.12 µM (inactive). For the same compound, the GI50 in [13] is 1.47 µM (inactive); in test [14], 1.82 µM (inactive); in test [15], 1.6 µM (inactive); in test [16] it was 2.58 µM (inactive); in test [17] it was 1.36 µM (inactive); in test [18] it was 1.76 µM (inactive). For the same compound, the GI50 was 3.33 µM (inactive) in [19] and 1.85 µM (inactive) in test [20].

For `Cc1ccc(/N=C2\C(=O)C3=C(OC(C)(C)CC3)c3ccccc32)cc1`, the GI50 in test [1] was 1.81 µM (inactive); in test [2], 0.292 µM (active); in test [3], 0.227 µM (active); in test [4], 1.77 µM (inactive); in test [5], 1.52 µM (inactive); in [6], 0.269 µM (active). Also, the GI50 in test [7] is 0.29 µM (active); in [8] it was 1.68 µM (inactive); in test [9] it was 0.183 µM (active); in test [10], 0.729 µM (active); in [11], 0.151 µM (active); in [12] it was 0.986 µM (active). Besides, the GI50 in [13] was 1.71 µM (inactive); in test [14] it was 1.7 µM (inactive); in test [15], 0.951 µM (active); in test [16], 1.26 µM (inactive); in [17] it was 0.275 µM (active); in test [18], 0.738 µM (active). Also, the GI50 in [19] is 2.27 µM (inactive); in [20], 0.748 µM (active).

`Nc1ccc2c(c1)NC(=O)[C@@H]1CCCN1C2=O`: the GI50 in test [1], in [2], in test [3], in test [4], in test [5] and in test [6] was > 100 µM (inactive) throughout. For the same compound, the GI50 in test [7], in [8], in test [9], in test [10], in test [11] and in test [12] was > 100 µM (inactive) in each case. Also, the GI50 in [13], in [14], in [15], in test [16], in [17] and in test [18] was > 100 µM (inactive) throughout. Moreover, the GI50 in test [19] and in [20] was > 100 µM (inactive) in each case.

Turning to `NCCOc1ccccn1`, the GI50 in [1], in test [2], in [3], in test [4], in [5] and in test [6] was > 100 µM (inactive) throughout. In addition, the GI50 in test [7], in test [8], in [9], in test [10], in test [11] and in test [12] was > 100 µM (inactive) each time. The GI50 in [13], in test [14], in test [15], in test [16], in test [17] and in [18] was > 100 µM (inactive) in each case. Moreover, the GI50 in test [19] and in test [20] was > 100 µM (inactive) each time.

As to `CCCCCCCCC(=O)NCCN(CCN)C(=O)CCCCCCCC`, the GI50 in test [1] was 18.2 µM (inactive); in test [2], 3.74 µM (inactive); in [3] it was 0.65 µM (active); in [4], 14 µM (inactive); in test [5], 2.48 µM (inactive); in test [6], 3.85 µM (inactive). Besides, the GI50 is 4.75 µM (inactive) in test [7]; 3.31 µM (inactive) in [8]; 13.7 µM (inactive) in [9]; 3.78 µM (inactive) in test [10]; 15.2 µM (inactive) in test [11]; 8.17 µM (inactive) in test [12]. In addition, the GI50 in [13] was 13.5 µM (inactive); in [14] it was 15.1 µM (inactive); in [15] it was 10.3 µM (inactive); in [16] it was 7 µM (inactive); in test [17] it was 2.69 µM (inactive); in test [18] it was 2.34 µM (inactive). The values for the GI50 in test [19] and in test [20] were 14.6 µM (inactive) and 18.4 µM (inactive), respectively.

Consider `CCOC(=O)c1ccc2nc3n(c2c1)C(c1c(F)cccc1F)SC3` (stereo not given), for which the GI50 in test [1] is 29.9 µM (inactive); in test [2], 50.4 µM (inactive); in test [3], > 100 µM (inactive); in [4], > 100 µM (inactive); in test [5], 81.8 µM (inactive); in test [6], > 100 µM (inactive). Also, the GI50 in test [7] was 56.8 µM (inactive); in test [8], > 100 µM (inactive); in [9], > 100 µM (inactive); in [10], > 100 µM (inactive); in test [11] it was 67.1 µM (inactive); in test [12] it was > 100 µM (inactive). Moreover, the GI50 in test [13] was 24.9 µM (inactive); in test [14], > 100 µM (inactive); in test [15] it was > 100 µM (inactive); in [16], > 100 µM (inactive); in [17], 49.3 µM (inactive); in [18], > 100 µM (inactive). Further, the GI50 in test [19] and in [20] was > 100 µM (inactive) in each case.

For the compound `Cc1c2ccnc(C(=O)NCCN(C)C)c2cc2c3cc(O)ccc3n(C)c12`, the GI50 is 0.957 µM (active) in test [1]; 0.0608 µM (active) in [2]; < 0.022 µM (active) in test [3]; 0.235 µM (active) in test [4]; 0.678 µM (active) in test [5]; 0.11 µM (active) in [6]. The GI50 in test [7] is 0.082 µM (active); in test [8], 0.314 µM (active); in test [9], 0.282 µM (active); in test [10] it was < 0.01 µM (active); in test [11], 0.357 µM (active); in test [12], 0.537 µM (active). The GI50 is 0.29 µM (active) in test [13]; 0.499 µM (active) in [14]; 0.149 µM (active) in [15]; 0.33 µM (active) in [16]; < 0.0184 µM (active) in test [17]; 0.0931 µM (active) in test [18]. In addition, the GI50 in test [19] is 2 µM (inactive); in [20], 1.53 µM (inactive).

With `Cc1nc2c(n1-c1ccc(Br)cc1)C(=O)c1ccccc1C2=O`, the GI50 in [1] was > 54.6 µM (inactive); in [2], 1.63 µM (inactive); in test [3], 0.783 µM (active); in [4] it was 27.2 µM (inactive); in test [5], 6.5 µM (inactive); in test [6] it was 2.62 µM (inactive). Moreover, the GI50 is 3.62 µM (inactive) in test [7]; 0.406 µM (active) in test [8]; 6.73 µM (inactive) in test [9]; 0.989 µM (active) in test [10]; 12 µM (inactive) in [11]; 14.8 µM (inactive) in [12]. In addition, the GI50 in [13] was 14.8 µM (inactive); in test [14], 66.4 µM (inactive); in test [15], 12.6 µM (inactive); in test [16], 20 µM (inactive); in test [17], 1.07 µM (active); in test [18] it was 7.74 µM (inactive). For the same compound, the GI50 in [19] was 34.4 µM (inactive); in test [20], 19.5 µM (inactive).

`O=[N+]([O-])/C=C/c1cc(Cl)c(/C=C/[N+](=O)[O-])cc1Cl`: the GI50 in test [1] is 1.91 µM (inactive); in [2] it was 1.12 µM (active); in test [3], 0.205 µM (active); in test [4] it was 2.55 µM (inactive); in [5] it was 3.03 µM (inactive); in test [6], 1.53 µM (inactive). The GI50 in test [7] was 2.89 µM (inactive); in test [8], 1.86 µM (inactive); in [9] it was 1.82 µM (inactive); in [10], 0.434 µM (active); in test [11], 1.97 µM (inactive); in test [12], 1.87 µM (inactive). The GI50 in [13] was 1.46 µM (inactive); in test [14], 3.25 µM (inactive); in test [15], 3.53 µM (inactive); in test [16], 13.8 µM (inactive); in test [17], 0.225 µM (active); in test [18] it was 1.03 µM (active). Also, the figures for the GI50 in test [19] and in test [20] were 2.12 µM (inactive) and 1.89 µM (inactive), respectively.
